From patent publication US20150352134A1, “COMPOSITION FOR TOPICAL SKIN APPLICATION CONTAINING GINSENOSIDE F2 DERIVED FROM HYDROPONIC GINSENG” (AMOREPACIFIC CORPORATION, priority 2012, published 2015)

What was measured:
3T3-L1 cells = assay: Lipogenesis inhibition in 3T3-L1 cells (Sudan III dyeing); format: cell-based, mouse; conditions: caffeine 50 μM; visual evaluation of fat accumulation
Procedure: The mouse fibroblast cell line, 3T3-L1 cells are immobilized in a 6-well culture plate filled with Dulbecco's modified eagle's medium (DMEM) (GIBCO BRL, Life Technologies, Inc.) containing 10% fetal bovine serum (FBS) at an amount of 1×10^5 cells/well. After 2 days, the used medium is replaced with a new DMEM (containing 10% FBS) medium to culture the cells for 2 days. […] After 5 days, the used DMEM medium is replaced with a normal medium (DMEM containing 10% FBS). The cells are cultured and observed until they are morphologically changed into fat cells. In order to evaluate the ginsenoside F2 in regards to the inhibitory effect on the fat accumulation in the fat cells, the completely differentiated 3T3-L1 fat cells are dyed with Sudan III ([…], Sigma-Aldrich). The fat cells are immobilized with 4% para-formaldehyde (pH 7.2) at the room temperature in a phosphate buffer solution. The fat cells are washed with phosphate-buffered saline (PBS) and then dyed with Sudan III. The picture of the fat cells is taken for visual evaluation. The control uses a medium using neither a test substance nor a comparative substance. The comparative control group is treated with 50 μM caffeine. The fat accumulation inhibitory ability is evaluated based on the degree of dying. The degree of dying is graded +++, ++, +, and - in the decreasing order.

interleukin-8 (IL-8) = assay: IL-8 generation inhibition in normal human skin keratinocytes (ELISA); format: cell-based; conditions: stimulation with PGSA / LPS, 24 hours
Procedure: One day before the testing, normal human skin keratinocytes (NHEK) purchased from Lonza are injected into a 96-well plate at a rate of 5×10^4 cells/well and cultured in an incubator under conditions of 5% CO2 and 37° C. for 24 hours. After 24 hours, the culture plate is washed with PBS twice, and the used culture medium is replaced with a serum-free keratinocyte basement medium. Ginsenoside F2 is injected into each well according to the concentration of Table 24 and allowed to react for 30 minutes. Then, the keratinocytes are treated separately with 10 μg/ml of PGSA, 50 μg/ml of PGSA, and a mixture of PGSA (50 μg/ml) and LPS (1 μg/ml). In this regard, PGSA (peptidoglycan from S. aureus) is stapylococcus-derived peptidoglycan that is a principal component of the cell membrane of gram-positive (+) bacteria, and the components of the cell membrane of bacteria are known to cause inflammation. Particularly, it is reported that about 90% of patients with atopic dermatitis are susceptible to secondary infection due to staphylococcus. LPS (lipopolysaccharide) is a principal component of the cell membrane of gram-negative (−) bacteria and reportedly a main cause of inflammation. After the keratinocytes are cultured in an incubator under conditions of 5% CO2 and 37° C. for 24 hours, the culture medium is collected and subjected to ELISA for interleukin-8 (IL-8). The ELISA is carried out according to the testing method as instructed by the manufacturer (BD Science).

PAR-2 = molecular target: T1, PAR-2 (Homo sapiens, UniProt P55085); assay: Itching relief: inflow of Ca2+ into HaCaT keratinocytes after trypsin or PAR-2 activated peptide; format: cell-based
T1 construct: host or cells: HaCaT keratinocytes
T1 sequence (P55085 26-397): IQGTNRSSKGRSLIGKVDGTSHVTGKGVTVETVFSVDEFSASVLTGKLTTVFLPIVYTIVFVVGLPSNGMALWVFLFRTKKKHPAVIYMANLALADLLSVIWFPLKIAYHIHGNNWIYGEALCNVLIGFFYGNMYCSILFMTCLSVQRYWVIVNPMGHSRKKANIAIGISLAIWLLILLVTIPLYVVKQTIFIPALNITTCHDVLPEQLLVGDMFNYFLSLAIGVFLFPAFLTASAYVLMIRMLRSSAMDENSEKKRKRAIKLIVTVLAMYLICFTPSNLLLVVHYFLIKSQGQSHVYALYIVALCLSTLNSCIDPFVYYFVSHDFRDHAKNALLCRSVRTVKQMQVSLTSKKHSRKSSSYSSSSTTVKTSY
Procedure: One day before the testing, keratinocytes (HaCaT purchased from ATCC) are injected into a 96-well plate at a rate of 4×10^4 cells/well and cultured in an incubator under conditions of 5% CO2 and 37° C. for 24 hours. After 24 hours, the culture plate is washed with HBSS (Hank's Balanced Salt Solution) buffer twice, and a reaction buffer (2 μM Fluo-4-AM, 20% pluronic acid, 2.5 mM probenecid) is added to the cells. The culture plate is kept in an incubator under conditions of 5% CO2 and 37° C. for 30 minutes and allowed to react at the room temperature for 30 minutes. Then, the culture plate is washed with HBSS buffer twice, and the cells are treated with ginsenoside F2 at a concentration (%) as given in Table 25.
After completion of the reaction for 10 minutes, the cells are treated with 2 U/ml trypsin or 5 μM PAR-2 activated peptide (SLIGKV), and then the change of Ca^2+ concentration in the cells for 80 seconds is measured. The measurement method uses FlexStation3® (Molecular Device, U.S.A.). The difference between minimum and maximum flex values for 80 seconds after treatment with 2 U/ml trypsin or 5 μM PAR-2 activated peptide (SLIGKV) in combination with ginsenoside F2 is compared with the difference between minimum and maximum flex values for 80 seconds after treatment with 2 U/ml trypsin or 5 μM PAR-2 activated peptide (SLIGKV) alone.

Straphylococcus aureus = assay: Antibacterial effect, MIC; format: cell-based, Staphylococcus aureus; conditions: 48 hours, 32°
Procedure: The antibacterial testing is carried out in order to evaluate the antibacterial effect of ginsenoside F2. The detailed testing method is as follows. Staphylococcus aureus, Escherichia coli, and pseudomonas aeruginosa strains are cultured with a tryptic soy broth, and candida albicans and aspergillus niger strains are cultured with sabouraud dextrose broth. The test bacterial liquid is the 1/100 (1/10 for candida albicans strain) diluted solution of the culture medium diluted with each medium. For aspergillus niger, the test bacterial liquid is the spore suspension prepared to 2×10^8 cfu/ml. 0.15 ml of the test bacterial liquid is added to 15 ml of each culture medium to prepare a well-blended diluted solution. 16 μl of the sample is put into each well on the first row of a 96-well plate, and 184 μl of the diluted solution is added to each well on the first row. Then, 100 μl of the diluted solution is put into each of the other wells. The mixed solution of the first row is sufficiently stirred, and 100 μl of the mixed solution is added to each well on the second row of the 96-well plate and stirred sufficiently. […] 48 hours later, the cell proliferation is determined by the turbidity index and microscopic observation to determine the minimum inhibitory concentration (MIC).

## CC(C)=CCC[C@](C)(O[C@@H]1O[C@H](CO)[C@@H](O)[C@H](O)[C@H]1O)[C@H]1CC[C@]2(C)[C@@H]1[C@H](O)C[C@@H]1[C@@]3(C)CC[C@H](O[C@@H]4O[C@H](CO)[C@@H](O)[C@H](O)[C@H]4O)C(C)(C)[C@@H]3CC[C@]12C [Ginsenoside F2, ginsenoside F2]
3T3-L1 cells
  Degree of Sudan III staining (visual grade): −
interleukin-8 (IL-8); 5 ppm
  IL-8 secretion: 1209.66 pg/mL
interleukin-8 (IL-8); 25 ppm
  IL-8 secretion: 1118.80 pg/mL
interleukin-8 (IL-8); 50 ppm
  IL-8 secretion: 1110.29 pg/mL
PAR-2; 0.05% ginsenoside F2
  Inhibition rate (%) on inflow of Ca^2+ into cells, Trypsin (2 U/ml): 23%
PAR-2; 0.1% ginsenoside F2
  Inhibition rate (%) on inflow of Ca^2+ into cells, Trypsin (2 U/ml): 30%
PAR-2; 1.0% ginsenoside F2
  Inhibition rate (%) on inflow of Ca^2+ into cells, Trypsin (2 U/ml): 41%
PAR-2; HaCaT, 0.05% ginsenoside F2, read-out: Inhibition rate (%) on inflow of Ca^2+ into cells, PAR-2 activated peptide (5 μM)
  inhibition at 0.05 %: 26%
PAR-2; HaCaT, 0.1% ginsenoside F2, read-out: Inhibition rate (%) on inflow of Ca^2+ into cells, PAR-2 activated peptide (5 μM)
  inhibition at 0.1 %: 35%
PAR-2; HaCaT, 0.5% ginsenoside F2, read-out: Inhibition rate (%) on inflow of Ca^2+ into cells, PAR-2 activated peptide (5 μM)
  inhibition at 0.5 %: 40%
PAR-2; HaCaT, 1.0% ginsenoside F2, read-out: Inhibition rate (%) on inflow of Ca^2+ into cells, PAR-2 activated peptide (5 μM)
  inhibition at 1 %: 47%
Straphylococcus aureus
  MIC (%) Straphylococcus aureus: 0.07%
